Laboratory results: patent US9115143B2, “Substituted indole derivatives as gamma secretase modulators” (Janssen Pharmaceuticals, Inc., priority 2011, dated 2015)

What was measured:
Aβ42 = assay: Screening for γ-secretase-modulating activity: Aβ42 in supernatant of SKNBE2 cells carrying hAPP 695 wild type (Alphalisa); type: cell-based, human; details: overnight incubation, Alphalisa on supernatant
Outline: (§1)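 Secreted Aβ42 (C-terminal/N-terminal antibody pair) and Aβtotal (N-terminal/mid-region pair) were quantified by AlphaLISA after overnight compound exposure of wild-type hAPP 695 SKNBE2 cells at 37 °C. Values expressed relative to compound-free maximum, with IC50 from nonlinear 4-parameter regression.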

Aβtotal [1] = assay: Screening for γ-secretase-modulating activity: Aβtotal in supernatant of SKNBE2 cells carrying hAPP 695 wild type (Alphalisa); type: cell-based, human; details: overnight incubation, Alphalisa on supernatant
Outline: as §1

Aβtotal [2] = assay: In vivo efficacy B-1a/B-2a: brain soluble Aβtotal in non-transgenic rodents, ELISA; parameters: species or system mouse; details: dose 30 mg/kg oral dosing, brain soluble fraction, untreated animals (Ctrl) set at 100; for response vs control in vivo at 30 mg/kg: Mus musculus, po, 4 h, read-out: Aβtotal (% vs Ctrl)_Mean
Excerpt: To determine whether acute administration of an Aβ42 lowering agent would reduce Aβ42 levels in vivo, non-transgenic rodents, e.g. mice or rats were used. Animals treated with the Aβ42 lowering agent were examined and compared to those untreated or treated with vehicle and brain levels of soluble Aβ42 and total Aβ were quantitated by standard techniques, for example, using ELISA. Treatment periods varied from hours (h) to days and were adjusted based on the results of the Aβ42 lowering once a time course of onset of effect could be established.
A typical protocol for measuring Aβ42 lowering in vivo is shown but it is only one of many variations that could be used to optimize the levels of detectable Aβ. For example, Aβ42 lowering compounds were formulated in 20% of Captisol® (a sulfobutyl ether of β-cyclodextrin) in water or 20% hydroxypropyl β cyclodextrin. The Aβ42 lowering agents were administered as a single oral dose or by any acceptable route of administration to overnight fasted animals. After 4 h, the animals were sacrificed and Aβ42 levels were analysed.
Blood was collected by decapitation and exsanguinations in EDTA-treated collection tubes. Blood was centrifuged at 1900 g for 10 minutes (min) at 4° C. and the plasma recovered and flash frozen for later analysis. The brain was removed from the cranium and hindbrain. The cerebellum was removed and the left and right hemisphere were separated. The left hemisphere was stored at −18° C. for quantitative analysis of test compound levels. The right hemisphere was rinsed with phosphate-buffered saline (PBS) buffer and immediately frozen on dry ice and stored at −80° C. until homogenization for biochemical assays.
Mouse brains from non-transgenic animals were resuspended in 8 volumes of 0.4% DEA (diethylamine)/50 mM NaCl containing protease inhibitors (Roche-11873580001 or 04693159001) per gram of tissue, e.g. for 0.158 g brain, add 1.264 mL of 0.4% DEA. All samples were homogenized in the FastPrep-24 system (MP Biomedicals) using lysing matrix D (MPBio #6913-100) at 6 m/s for 20 seconds. Homogenates were centrifuged at 20800×g for 5 min and supernatants collected. Supernatants were centrifuged at 221.300×g for 50 min. The resulting high speed supernatants were then transferred to fresh eppendorf tubes. Nine parts of supernatant were neutralized with 1 part 0.5 M Tris-HCl pH 6.8 and used to quantify Aβtotal and Aβ42.
To quantify the amount of Aβtotal and Aβ42 in the soluble fraction of the brain homogenates, Enzyme-Linked-Immunosorbent-Assays were used. Briefly, the standards (a dilution of synthetic Aβ1-40 and Aβ1-42, Bachem) were prepared in 1.5 mL Eppendorf tube in Ultraculture, with final concentrations ranging from 10000 to 0.3 pg/mL. The samples and standards were co-incubated with HRPO-labelled N-terminal antibody JRF/rAμ/2 for Aβ42 detection and with the biotinylated mid-domain antibody 4G8 for Aβtotal detection. 50 μl of conjugate/sample or conjugate/standards mixtures were then added to the antibody-coated plate (the capture antibodies selectively recognize the C-terminal end of Aβ42, antibody JRF/cAβ42/26, for Aβ42 detection and the N-terminus of AB, antibody JRF/rAβ/2, for Aβtotal detection). The plate was allowed to incubate overnight at 4° C. in order to allow formation of the antibody-amyloid complex. Following this incubation and subsequent wash steps the ELISA for Aβ42 quantification was finished by addition of Quanta Blu fluorogenic peroxidase substrate according to the manufacturer's instructions (Pierce Corp., Rockford, Ill.). A reading was performed after 10 to 15 min (excitation 320 nm/emission 420 nm).
For Aβtotal detection, a Streptavidine-Peroxidase-Conjugate was added, followed 60 min later by an additional wash step and addition of Quanta Blu fluorogenic peroxidase substrate according to the manufacturer's instructions (Pierce Corp., Rockford, Ill.). A reading was performed after 10 to 15 min (excitation 320 nm/emission 420 nm). […]

[3] = SKNBE2 human neuroblastoma cells carrying hAPP 695 wild type
[4] = Homo sapiens, SKNBE2, SKNBE2 human neuroblastoma cells carrying hAPP 695 wild type

SMILES	IC50 (Aβ42; [3]) [µM]	IC50 (Aβtotal [1]; [3]) [µM]	response vs control in vivo at 30 mg/kg (Aβtotal [2]) [%]	IC50 (Aβtotal [1]; [4]) [µM]	Aβtotal (% vs Ctrl)_Mean (Aβtotal [2]; 30 mg/kg) [% vs Ctrl]	IC50 (Aβ42; [4]) [µM]	Aβtotal (% vs Ctrl)_Mean (Aβtotal [2]) [% vs Ctrl]	melting point [°C]
Cc1cn(-c2ccc3[nH]c(-c4nc5n(n4)CCCC5c4ccc(F)cc4C)cc3c2)cn1 (single isomer, unassigned) [Compound 77, 8-(4-fluoro-2-methylphenyl)-5,6,7,8-tetrahydro-2-[5-(4-methyl-1H-imidazol-1-yl)-1H-indol-2-yl]-[1,2,4]triazolo[1,5-a]pyridine]	0.024	> 10	102	–	–	–	–	–
Cc1cc(F)ccc1C1OCCn2cc(-c3cc4nc(-c5cnn(C)c5)ccc4[nH]3)nc21 (single isomer, unassigned) [Compound 102, 8-(4-fluoro-2-methylphenyl)-5,6-dihydro-2-[5-(1-methyl-1H-pyrazol-4-yl)-1H-pyrrolo[3,2-b]pyridin-2-yl]-8H-imidazo[2,1-c][1,4]oxazine]	0.089	> 10	121	–	–	–	–	–
COc1c(C#N)ccc2[nH]c(-c3nc4n(n3)CCOC4c3c(F)cccc3Cl)cc12 (single isomer, unassigned) [Compound 117, 2-[8-(2-chloro-6-fluorophenyl)-5,6-dihydro-8H-[1,2,4]triazolo[5,1-c][1,4]oxazin-2-yl]-4-methoxy-1H-indole-5-carbonitrile]	0.037	–	103	> 10	–	–	–	–
Cc1cc(F)ccc1C1CCCn2nc(-c3[nH]c4ccc(C#N)cc4c3F)nc21 (single isomer, unassigned) [Compound 182, 3-fluoro-2-[8-(4-fluoro-2-methylphenyl)-5,6,7,8-tetrahydro[1,2,4]triazolo[1,5-a]pyridin-2-yl]-1H-indole-5-carbonitrile]	0.117	> 10	118	–	–	–	–	–
Cc1cc(F)ccc1C1CCCn2cc(-c3cc4cc(C#N)ccc4[nH]3)nc21 (stereo not drawn) [Compound 4, 2-[8-(4-fluoro-2-methylphenyl)-5,6,7,8-tetrahydroimidazo[1,2-a]pyridin-2-yl]-1H-indole-5-carbonitrile]	0.087	–	–	> 10	82	–	–	–
COc1c(C#N)ccc2[nH]c(-c3nc4n(n3)CCCC4c3ccccc3C(F)(F)F)cc12 (stereo not drawn) [Compound 7, 4-methoxy-2-[5,6,7,8-tetrahydro-8-[2-(trifluoromethyl)phenyl][1,2,4]triazolo[1,5-a]pyridin-2-yl]-1H-indole-5-carbonitrile]	–	–	96	> 10	–	0.035	–	–
Cc1cn(-c2ccc3[nH]c(-c4nc5n(n4)CCCC5c4ccccc4C(F)(F)F)cc3c2)cn1 (stereo not drawn) [Compound 8, 5,6,7,8-tetrahydro-2-[5-(4-methyl-1H-imidazol-1-yl)-1H-indol-2-yl]-8-[2-(trifluoromethyl)phenyl]-[1,2,4]triazolo[1,5-a]pyridine]	–	–	86	> 10	–	0.046	–	–
Cc1cc(F)ccc1C1CCCn2nc(-c3cc4cc(C#N)ccc4[nH]3)nc21 (stereo not drawn) [Compound 10, 2-[8-(4-fluoro-2-methylphenyl)-5,6,7,8-tetrahydro[1,2,4]triazolo[1,5-a]pyridin-2-yl]-1H-indole-5-carbonitrile]	0.102	> 10	105	–	–	–	–	–
Cc1ccccc1C1CCCn2nc(-c3cc4cc(C#N)ccc4[nH]3)nc21 (stereo not drawn) [Compound 13, 2-[5,6,7,8-tetrahydro-8-(2-methylphenyl)[1,2,4]triazolo[1,5-a]pyridin-2-yl]-1H-indole-5-carbonitrile]	0.072	> 10	80	–	–	–	–	–
N#Cc1ccc2[nH]c(-c3cn4c(n3)C(c3ccccc3Cl)CCC4)cc2c1 (stereo not drawn) [Compound 16, 2-[8-(2-chlorophenyl)-5,6,7,8-tetrahydroimidazo[1,2-a]pyridin-2-yl]-1H-indole-5-carbonitrile]	–	–	95	> 10	–	0.112	–	–
Cc1cn(-c2cc3cc(-c4nc5n(n4)CCCC5c4ccccc4C)[nH]c3cn2)cn1 (stereo not drawn) [Compound 30, 5,6,7,8-tetrahydro-2-[5-(4-methyl-1H-imidazol-1-yl)-1H-pyrrolo[2,3-c]pyridin-2-yl]-8-(2-methylphenyl)-[1,2,4]triazolo[1,5-a]pyridine]	–	–	97	> 10	–	0.052	–	–
Cc1cn(-c2ccc3[nH]c(-c4nc5n(n4)CCOC5c4ccccc4C(F)(F)F)cc3c2)cn1 (stereo not drawn) [Compound 37, 5,6-dihydro-2-[5-(4-methyl-1H-imidazol-1-yl)-1H-indol-2-yl]-8-[2-(trifluoromethyl)phenyl]-8H-[1,2,4]triazolo[5,1-c][1,4]oxazine]	–	–	93	0.832	–	0.048	–	–
Cc1cn(-c2ccc3[nH]c(-c4nc5n(n4)CCOC5c4ccc(F)cc4C)cc3c2)cn1 (stereo not drawn) [Compound 39, 8-(4-fluoro-2-methylphenyl)-5,6-dihydro-2-[5-(4-methyl-1H-imidazol-1-yl)-1H-indo-2-yl]-8H-[1,2,4]triazolo[5,1-c][1,4]oxazine]	0.038	0.214	–	–	–	–	99	–
COc1c(C#N)ccc2[nH]c(-c3nc4n(n3)CCOC4c3ccccc3C(F)(F)F)cc12 (stereo not drawn) [Compound 55, 2-[5,6-dihydro-8-[2-(trifluoromethyl)phenyl]-8H-[1,2,4]triazolo[5,1-c][1,4]oxazin-2-yl]-4-methoxy-1H-indole-5-carbonitrile]	–	–	111	> 10	–	0.072	–	–
COc1c(C#N)ccc2[nH]c(-c3nc4n(n3)CCCC4c3ccc(F)cc3C)cc12 (stereo not drawn) [Compound 59, 2-[8-(4-fluoro-2-methylphenyl)-5,6,7,8-tetrahydro[1,2,4]triazolo[1,5-a]pyridin-2-yl]-4-methoxy-1H-indole-5-carbonitrile]	–	–	86	3.71	–	0.025	–	–
Cc1cc(F)ccc1C1CCCn2cc(-c3cc4cc(C#N)ccc4[nH]3)nc21 (stereo not drawn) [Compound 63, 2-[8-(4-fluoro-2-methylphenyl)-5,6,7,8-tetrahydroimidazo[1,2-a]pyridin-2-yl]-1H-indole-5-carbonitrile]	4.47	> 10	–	–	121	–	–	–
Cc1cc(F)ccc1C1CCCn2cc(-c3cc4cc(C#N)ccc4[nH]3)nc21 (stereo not drawn) [Compound 64, 2-[8-(4-fluoro-2-methylphenyl)-5,6,7,8-tetrahydroimidazo[1,2-a]pyridin-2-yl]-1H-indole-5-carbonitrile]	0.068	> 10	–	–	100	–	–	–
COc1c(C#N)ccc2[nH]c(-c3nc4n(n3)CCOC4c3ccc(F)cc3C)cc12 (stereo not drawn) [Compound 114, 2-[8-(4-fluoro-2-methylphenyl)-5,6-dihydro-8H-[1,2,4]triazolo[5,1-c][1,4]oxazin-2-yl]-4-methoxy-1H-indole-5-carbonitrile]	0.032	> 10	–	–	–	–	–	257.5
